The target of one data set is T1, rat VAP-1 enzyme (SSAO) (Rattus norvegicus, UniProt O08590).
T1 construct: made in house; cell extract used
T1 sequence (O08590 1-763): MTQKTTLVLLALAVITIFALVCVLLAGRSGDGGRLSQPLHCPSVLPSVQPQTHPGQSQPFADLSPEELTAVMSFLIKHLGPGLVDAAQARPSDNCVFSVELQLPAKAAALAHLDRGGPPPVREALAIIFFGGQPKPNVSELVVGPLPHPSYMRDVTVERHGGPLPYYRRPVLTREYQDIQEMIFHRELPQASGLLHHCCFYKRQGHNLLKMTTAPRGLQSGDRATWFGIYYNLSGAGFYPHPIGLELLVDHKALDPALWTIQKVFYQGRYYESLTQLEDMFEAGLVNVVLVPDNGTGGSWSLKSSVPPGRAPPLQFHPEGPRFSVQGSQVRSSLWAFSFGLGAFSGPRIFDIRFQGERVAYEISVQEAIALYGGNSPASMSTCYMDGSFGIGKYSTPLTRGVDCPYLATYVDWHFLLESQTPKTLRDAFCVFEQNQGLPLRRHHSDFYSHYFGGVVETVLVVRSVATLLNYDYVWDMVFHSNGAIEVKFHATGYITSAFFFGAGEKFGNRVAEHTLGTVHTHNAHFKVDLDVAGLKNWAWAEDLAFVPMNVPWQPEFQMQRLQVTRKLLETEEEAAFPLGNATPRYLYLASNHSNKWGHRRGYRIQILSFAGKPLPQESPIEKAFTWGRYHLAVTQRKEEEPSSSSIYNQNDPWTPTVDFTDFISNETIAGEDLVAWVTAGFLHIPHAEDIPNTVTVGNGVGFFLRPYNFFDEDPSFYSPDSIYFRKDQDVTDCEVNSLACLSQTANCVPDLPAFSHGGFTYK
Put plainly: Enzyme activity inhibitory effect on rat VAP-1 enzyme (SSAO), radiochemical-enzyme assay with 14C-benzylamine. It counts as biochemical. Particulars: rat VAP-1 (SSAO) cell extract, 14C-benzylamine 1×10^−5 mol/l, 37° C. 2 hours. The protocol:
(§1) The compounds of the present invention obtained in Production Examples were examined for the enzyme activity inhibitory effect on human and rat VAP-1 enzyme (SSAO) by the following method.
(§2) The VAP-1 enzyme (SSAO) activity in both human and rat was measured by a radiochemical-enzyme assay using ^14C-benzylamine as an artificial substrate. Human or rat VAP-1 was cloned from the cDNA library and expressed in a cell. The cell extract was preincubated with a test compound solution (final concentration 1×10^−7-1×10^−11 mol/l) at room temperature for 20 minutes. Then, ^14C-benzylamine (final concentration 1×10^−5 mol/l) was added, and the mixture was incubated at a final volume of 200 μl at 37° C. for 2 hours. The enzyme reaction was stopped by addition of 2 mol/l (200 μl) citric acid. The oxidation product was extracted with 1 ml toluene/ethyl acetate (1:1), and the radioactivity thereof was measured by a liquid scintillation counter.

The target of data set [1] is T2, human VAP-1 enzyme (SSAO) (Homo sapiens, UniProt Q16853).
T2 construct: made in house; cell extract used
T2 sequence (Q16853 1-763): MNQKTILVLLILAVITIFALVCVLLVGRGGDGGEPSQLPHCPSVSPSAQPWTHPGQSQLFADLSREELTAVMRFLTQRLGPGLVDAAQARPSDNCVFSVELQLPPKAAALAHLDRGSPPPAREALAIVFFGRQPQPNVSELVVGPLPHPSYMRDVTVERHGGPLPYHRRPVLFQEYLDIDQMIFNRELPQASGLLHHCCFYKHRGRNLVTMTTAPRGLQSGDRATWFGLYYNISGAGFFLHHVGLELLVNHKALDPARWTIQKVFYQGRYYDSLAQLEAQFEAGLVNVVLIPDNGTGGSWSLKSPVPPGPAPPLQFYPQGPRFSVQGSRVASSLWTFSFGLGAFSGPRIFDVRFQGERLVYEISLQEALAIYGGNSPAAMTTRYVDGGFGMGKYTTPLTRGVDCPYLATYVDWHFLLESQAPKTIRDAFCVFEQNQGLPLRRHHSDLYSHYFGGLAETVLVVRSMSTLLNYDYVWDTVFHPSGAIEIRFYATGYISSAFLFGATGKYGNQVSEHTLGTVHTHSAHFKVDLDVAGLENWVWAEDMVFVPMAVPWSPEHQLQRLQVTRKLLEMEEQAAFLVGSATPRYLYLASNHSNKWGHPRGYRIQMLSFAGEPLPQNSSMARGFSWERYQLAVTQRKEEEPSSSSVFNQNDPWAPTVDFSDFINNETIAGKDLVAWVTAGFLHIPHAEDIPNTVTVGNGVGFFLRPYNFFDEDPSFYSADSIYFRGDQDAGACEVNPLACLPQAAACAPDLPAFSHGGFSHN
Description: Enzyme activity inhibitory effect on human VAP-1 enzyme (SSAO), radiochemical-enzyme assay with 14C-benzylamine. It counts as biochemical. Particulars: human VAP-1 (SSAO) cell extract, 14C-benzylamine 1×10^−5 mol/l, 37° C. 2 hours. Here is the method:
as §1, §2

Structures are written as SMILES.

`CC(=O)Nc1nc(CCc2cccc(COC(=O)NN)c2)cs1.Cl` [Production Example 11, 3-{2-[2-(acetylamino)-1,3-thiazol-4-yl]ethyl}benzyl hydrazinecarboxylate hydrochloride] displayed a melting point of 113 to 119 °C. This molecule also registered an IC50 on rat VAP-1 enzyme (SSAO) of 0.2 nM. The molecule also registered an IC50 in data set [1] of 1.3 nM.
For `CC(=O)Nc1nc(CCc2cccc(CCOC(=O)NN)c2)cs1.Cl` [Production Example 12, 2-(3-{2-[2-(acetylamino)-1,3-thiazol-4-yl]ethyl}phenyl)ethyl hydrazinecarboxylate hydrochloride] the same measures were 138 to 140 °C, 0.5 nM and 3.2 nM.
For `CC(=O)Nc1nc(CCc2csc(CCCOC(=O)NN)c2)cs1.Cl` [Production Example 15, 3-(4-{2-[2-(acetylamino)-1,3-thiazol-4-yl]ethyl}thiophen-2-yl)propyl hydrazinecarboxylate hydrochloride] the same measures were 150 to 153 °C, 0.6 nM and 13.4 nM.
For `CC(=O)Nc1nc(CCc2cc(CCCOC(=O)NN)cs2)cs1.Cl` [Production Example 16, 3-(5-{2-[2-(acetylamino)-1,3-thiazol-4-yl]ethyl}thiophen-3-yl)propyl hydrazinecarboxylate hydrochloride] the same measures were 98 to 102 °C, 10.5 nM and 16.7 nM.
As for `CC(=O)Nc1nc(CCc2cc(C)c(CCCOC(=O)NN)s2)cs1.Cl` [Production Example 17, 3-(5-{2-[2-(acetylamino)-1,3-thiazol-4-yl]ethyl}-3-methylthiophen-2-yl)propyl hydrazinecarboxylate hydrochloride], the melting point lay within 111 to 115 °C. On rat VAP-1 enzyme (SSAO), this molecule showed an IC50 of 5 nM. Further, the IC50 in data set [1] came out at 68.7 nM.
In the same order, the values of `CC(=O)Nc1nc(CCc2ccc(CNC(=O)NN)cc2)cs1.Cl` [Production Example 18, N-(4-{2-[2-(acetylamino)-1,3-thiazol-4-yl]ethyl}benzyl)hydrazinecarboxamide hydrochloride] are 167 to 169 °C, 1.3 nM and 4 nM.
For the molecule `CC(=O)Nc1nc(CCc2ccc(CCNC(=O)NN)cc2)cs1.Cl` [Production Example 19, N-[2-(4-{2-[2-(acetylamino)-1,3-thiazol-4-yl]ethyl}phenyl)ethyl]hydrazinecarboxamide hydrochloride], the melting point is 171 to 173 °C. Also, 2.3 nM corresponded to half-maximal inhibition on rat VAP-1 enzyme (SSAO) (IC50). Inhibition in data set [1] was half-maximal at 12.2 nM (IC50).
For `CC(=O)Nc1nc(CCc2ccc(CNC(=O)NN)c(F)c2)cs1.Cl` [Production Example 20, N-(4-{2-[2-(acetylamino)-1,3-thiazol-4-yl]ethyl}-2-fluorobenzyl)hydrazinecarboxamide hydrochloride] the same measures were 172 to 175 °C, 1.6 nM and 2.8 nM.
In the same order, the values of `CC(=O)Nc1nc(C(=O)Oc2ccc(CCNC(=O)NN)cc2)cs1.Cl` [Production Example 26, 4-{2-[(hydrazinocarbonyl)amino]ethyl}phenyl 2-(acetylamino)-1,3-thiazole-4-carboxylate hydrochloride] are 204 to 207 °C, 3.3 nM and 13.3 nM.
For `CC(=O)Nc1nc(CCc2cccc(CNC(=O)NN)c2)cs1.Cl` [Production Example 27, N-(3-{2-[2-(acetylamino)-1,3-thiazol-4-yl]ethyl}benzyl)hydrazinecarboxamide hydrochloride] the same measures were 123 to 127 °C, 0.6 nM and 2.1 nM.
With `CC(=O)Nc1nc(CCc2cccc(CCNC(=O)NN)c2)cs1.Cl` [Production Example 28, N-[2-(3-{2-[2-(acetylamino)-1,3-thiazol-4-yl]ethyl}phenyl)ethyl]hydrazinecarboxamide hydrochloride], the melting point was in the range of 176 to 179 °C. This molecule also gave an IC50 at rat VAP-1 enzyme (SSAO) of 5.6 nM. Moreover, the IC50 in data set [1] came to 44.3 nM.
On to `CC(=O)Nc1nc(CCc2ccc(CNC(=O)NN)s2)cs1.Cl` [Production Example 29, N-[2-(5-{2-[2-(acetylamino)-1,3-thiazol-4-yl]ethyl}thiophen-2-yl)methyl]hydrazinecarboxamide hydrochloride], for which the melting point lay within 158 to 161 °C. Further, half-maximal inhibition on rat VAP-1 enzyme (SSAO) (IC50) required 0.6 nM. Besides, it took 1.8 nM to reach half-maximal inhibition in data set [1] (IC50).
In the same order, the values of `CC(=O)Nc1nc(CCc2ccc(CCNC(=O)NN)s2)cs1.Cl` [Production Example 30, N-[2-(5-{2-[2-(acetylamino)-1,3-thiazol-4-yl]ethyl}thiophen-2-yl)ethyl]hydrazinecarboxamide hydrochloride] are 178 to 181 °C, 3.8 nM and 18.8 nM.
For `CC(=O)Nc1nc(CCc2cc(C)c(CCCNC(=O)NN)s2)cs1.Cl` [Production Example 33, N-[3-(5-{2-[2-(acetylamino)-1,3-thiazol-4-yl]ethyl}-3-methylthiophen-2-yl)propyl]hydrazinecarboxamide hydrochloride] the same measures were 152 to 157 °C, 2.1 nM and 108 nM.
In the same order, the values of `CC(=O)Nc1nc(CCc2ccc(CSC(=O)NN)cc2)cs1.Cl` [Production Example 34, S-(4-{2-[2-(acetylamino)-1,3-thiazol-4-yl]ethyl}benzyl) hydrazinecarbothioate hydrochloride] are 149 to 158 °C, 4.6 nM and 23.2 nM.

Usually IC50 stands for the concentration that inhibits the measured activity by half. As a reminder, the melting point is the temperature, or range, at which the solid turns liquid.
